Assay: xn = mol fraction of the nth substance listed
Settings: 101 kPa

CCCC[n+]1ccn(C)c1.COP(=O)([O-])OC + CCC(=O)O.CCC(=O)[O-].CC[NH+](CC)CCO
x2 = 0
Settings | viscosity [mPa·s]
278.15 K | 3503
288.15 K | 1361.1
293.15 K | 895
298.15 K | 609
303.15 K | 426
308.15 K | 305.8
313.15 K | 224.9
318.15 K | 168.9
323.15 K | 129.4
333.15 K | 79.9
338.15 K | 64.25
348.15 K | 43.18
353.15 K | 36.02
358.15 K | 30.38
363.15 K | 25.86
368.15 K | 22.22

CCCC(=O)[O-].CC[NH+](CC)CCO + CCCC[n+]1ccn(C)c1.COP(=O)([O-])OC
viscosity [mPa·s]
Settings | x1 = 0.1023 | x1 = 0.1989 | x1 = 0.3026 | x1 = 0.3985 | x1 = 0.498 | x1 = 0.6001 | x1 = 0.6613 | x1 = 0.8006 | x1 = 0.8788 | x1 = 1
278.15 K | 2058 | 1152.2 | 671 | 445 | 322.4 | 255.2 | 231 | – | 191 | –
283.15 K | 1309.9 | 764 | 459 | 311.5 | 228.5 | – | 165.4 | 140.9 | 136.5 | –
288.15 K | – | 522 | 322.9 | 223.4 | 165.9 | 133.2 | – | 103.2 | 99.6 | 96.9
293.15 K | 587 | 367 | 233 | – | – | – | 90.5 | 77.1 | – | 71.6
298.15 K | 411 | – | 172.1 | 122.9 | 93.3 | 75.8 | 69 | 58.8 | 56.4 | 54
303.15 K | 294.9 | – | 129.8 | 94 | 72 | – | 53.58 | 45.58 | 43.6 | 41.42
308.15 K | 216.6 | 146.7 | 99.8 | – | 56.55 | 46.34 | 42.29 | 35.94 | 34.28 | 32.34
313.15 K | 162.7 | 112.5 | – | 57.98 | – | 37.1 | – | 28.77 | 27.36 | 25.64
318.15 K | – | 87.9 | 61.99 | 46.61 | 36.5 | – | 27.53 | – | 22.14 | 20.63
323.15 K | 96.9 | – | 49.98 | 37.99 | 29.93 | 24.77 | – | 19.2 | 18.14 | 16.82
328.15 K | 76.7 | 56.15 | 40.85 | 31.37 | 24.84 | – | 18.87 | 15.97 | 15.04 | 13.87
333.15 K | 61.58 | 45.81 | 33.8 | 26.18 | 20.85 | 17.35 | 15.88 | 13.42 | 12.6 | 11.56
338.15 K | 50.11 | 37.83 | 28.27 | 22.09 | 17.68 | 14.74 | – | – | 10.66 | –
343.15 K | 41.29 | – | 23.89 | – | 15.13 | – | 11.56 | 9.74 | 9.09 | 8.27
348.15 K | 34.41 | 26.65 | 20.38 | 16.18 | – | 10.92 | 9.99 | 8.41 | 7.82 | 7.08
353.15 K | 28.99 | 22.7 | – | 14.02 | 11.35 | 9.51 | 8.69 | – | – | –
358.15 K | 24.65 | 19.51 | 15.22 | – | 9.95 | 8.33 | – | 6.39 | 5.92 | –
363.15 K | 21.15 | 16.9 | 13.3 | 10.76 | 8.77 | 7.36 | 6.72 | 5.63 | 5.2 | 4.65
368.15 K | 18.3 | 14.76 | – | 9.52 | 7.78 | 6.53 | 5.97 | 4.99 | 4.6 | –
373.15 K | 15.96 | 12.97 | 10.37 | 8.47 | 6.95 | 5.84 | 5.33 | 4.45 | 4.08 | 3.61

CCCCCC(=O)O.CCCCCC(=O)[O-].CC[NH+](CC)CCO + CCCC[n+]1ccn(C)c1.COP(=O)([O-])OC
viscosity [mPa·s]
Settings | x1 = 0.0684 | x1 = 0.1429 | x1 = 0.2213 | x1 = 0.3088 | x1 = 0.3966 | x1 = 0.4995 | x1 = 0.6088 | x1 = 0.7258 | x1 = 0.8535 | x1 = 1
278.15 K | 2021 | 1198.1 | – | 529 | 412 | 343 | – | 255.9 | 217.2 | 179
283.15 K | – | 787 | 520 | 365 | 288.7 | – | 211.6 | – | 159 | 132.6
288.15 K | 841 | 535 | – | – | 207.7 | 176.1 | 155.1 | 137.2 | 118.9 | –
293.15 K | 570 | 374 | 259.3 | 189.1 | 152.9 | – | 116 | 103.5 | – | 76.9
298.15 K | 398 | 268.2 | – | – | 114.9 | 98.9 | 88.5 | 79.5 | 70.1 | 60
303.15 K | 285.4 | 197.1 | – | 107 | 88.1 | 76.3 | – | 62.1 | 55.1 | –
308.15 K | 209.4 | – | 108.8 | 82.8 | 68.7 | 59.9 | 54.11 | 49.21 | 43.94 | 38.14
313.15 K | – | 113.2 | 84.6 | – | 54.51 | 47.69 | 43.28 | 39.55 | 35.51 | 31
318.15 K | 120 | 88.2 | 66.9 | 52.14 | – | 38.54 | 35.09 | 32.2 | – | 25.48
323.15 K | 93.3 | 69.8 | 53.69 | 42.29 | – | 31.55 | 28.81 | 26.52 | 24.02 | 21.16
328.15 K | 73.8 | 56.08 | 43.7 | 34.74 | 29.57 | – | 23.92 | 22.08 | 20.07 | –
333.15 K | 59.25 | 45.69 | 36.01 | 28.88 | 24.7 | 21.89 | 20.08 | 18.56 | 16.93 | 15.02
338.15 K | – | 37.68 | – | 24.28 | 20.85 | 18.53 | 17.01 | 15.76 | 14.4 | –
343.15 K | – | 31.44 | – | – | 17.77 | 15.82 | 14.54 | 13.48 | 12.35 | 11.01
348.15 K | 33.12 | 26.52 | 21.54 | 17.66 | 15.28 | 13.63 | 12.53 | 11.63 | 10.67 | –
353.15 K | 27.9 | 22.58 | – | 15.27 | 13.25 | – | 10.89 | – | 9.27 | –
358.15 K | 23.74 | 19.41 | – | 13.3 | 11.58 | 10.34 | 9.52 | 8.84 | 8.11 | –
363.15 K | 20.39 | 16.82 | 13.98 | 11.67 | 10.19 | 9.1 | 8.38 | 7.77 | 7.13 | 6.36
368.15 K | 17.66 | 14.68 | 12.3 | 10.31 | – | 8.06 | 7.42 | 6.87 | 6.3 | 5.61
373.15 K | 15.41 | 12.91 | – | 9.17 | 8.04 | 7.18 | 6.6 | 6.11 | 5.59 | 4.96

CC(=O)O.CC(=O)[O-].CC[NH+](CC)CCO + CCCC[n+]1ccn(C)c1.COP(=O)([O-])OC
viscosity [mPa·s]
Settings | x1 = 0.0748 | x1 = 0.3316 | x1 = 0.4263 | x1 = 0.5275 | x1 = 0.6343 | x1 = 0.7493 | x1 = 0.8567 | x1 = 1
278.15 K | 2020 | – | 363 | – | 329 | 314 | 310 | 340
283.15 K | 1280.5 | 315 | 254.3 | 234.7 | 229 | – | 210 | 227
288.15 K | 840 | 224.3 | 183.7 | – | 164 | 157.9 | 146.3 | 156.1
293.15 K | – | 164.3 | 135.3 | 124 | 120.6 | – | 104.7 | 110.4
298.15 K | 396 | 123.7 | 102.2 | – | – | 88 | – | 80.2
303.15 K | – | 95.2 | 79 | 72.4 | 70.3 | 67.9 | 57.8 | –
308.15 K | 208 | – | 62.2 | 57 | 55.2 | – | 44.3 | 45.3
313.15 K | 155.8 | 58.3 | 48.55 | – | – | 41.14 | 34.65 | 35.12
318.15 K | 119.1 | 48.01 | 40.43 | 36.97 | 35.71 | 34.54 | – | 27.71
323.15 K | 92.7 | 39.18 | 33.11 | – | – | 28.27 | – | 22.22
328.15 K | – | 32.29 | – | 25.04 | 24.08 | – | 18.26 | 18.08
333.15 K | 58.8 | 24.59 | 20.72 | 18.82 | – | – | 15.16 | 14.9
338.15 K | – | 22.48 | 19.2 | 17.53 | 16.79 | 16.24 | 12.72 | 12.45
343.15 K | 39.38 | 18.97 | 16.24 | 14.82 | 14.16 | – | 10.79 | 10.49
348.15 K | 32.81 | 16.13 | 13.83 | 12.6 | – | 11.59 | 9.24 | –
353.15 K | 27.63 | 12.97 | 11.07 | 10.04 | 9.54 | 9.16 | 7.98 | 7.67
358.15 K | 23.49 | 11.89 | 10.22 | – | 8.82 | 8.46 | – | –
363.15 K | 20.16 | 10.32 | 8.87 | 8.06 | 7.63 | 7.29 | 6.09 | –
368.15 K | 17.45 | 9.01 | 7.75 | – | – | 6.33 | 5.37 | 5.09
373.15 K | 15.23 | 7.79 | 6.7 | 6.06 | 5.71 | 5.43 | 4.76 | 4.5

Source: a compilation of properties of binary mixtures (doi:10.1016/j.fluid.2020.112621)
